Values quoted from earlier work, collected in patent publication US20040087564A1, “Delivery composition and method” (priority 2002, published 2004).

C[C@]12CC[C@H]3[C@@H](CCC4=CC(=O)CC[C@@]43C)[C@@H]1CC[C@@H]2O [testosterone]
true testosterone disposition half-life (in rabbits): ~15 min | testosterone clearance (male rabbit, Bourget et al., Steroids 43:225-233 (1984)): 29.2 mL/min/kg
